Experimental data as given in patent US20040029938A1, “Medicaments” (priority 2000, published 2004).

Tested on: inducible nitric oxide synthase (INOS)
Experiment: LPS-induced INOS activity in J774 cells (DAF-2 fluorescence)
Type: cell-based, mouse
Conditions: pre-treatment 6 hours before and 24 hours after LPS (1 μg/ml), sub-nanomolar-nanomolar concentrations, FIG. 1
Experimental: In this assay system, lipopolysaccharide (LPS) was used to induce the expression of INOS in the mouse macrophage cell line, J774. […] This reduction in INOS activity correlated with a reduction in LPS-induced INOS mRNA expression.
Specifically, LPS-induced INOS activity was measured using the following assay conditions. J774 cells were seeded at a density of […] per well, in a black, clear-bottomed, 96 well plate, 24hours prior to use. The cell culture and the drug dilutions were carried out in complete media, which consisted of DMEM (Dulbecco's modification of Eagle's medium) containing foetal calf serum (10%), glutamine (2 mM), penicillin (100 μ/ml) and streptomycin (100 μg/ml). The J774 cells were pre-treated with the PPAR delta activators A and B, or vehicle, for 6 hours prior to, and for 24 hours subsequent to the addition of LPS (typically, a concentration of 1 μg/ml of LPS was used). Twenty-four hours after the addition of LPS, INOS activity was measured by the following method. […] After incubation at 37° C. for 3 hours, fluorescence from each well was measured at an excitation wavelength of 485 nm, and an emission wavelength of 530 nm. […]
LPS to induce INOS activity, in the presence and absence of PPAR delta activators, was then calculated. […]

SMILES	inhibition of LPS-induced INOS activity
Cc1cc(SCc2sc(-c3ccc(C(F)(F)F)cc3)nc2C)ccc1OCC(=O)O [Compound A, 2-{2-methyl-4-[({4-methyl-2-[4-(trifluoromethyl)phenyl]-1,3-thiazol-5-yl}methyl)sulfanyl]phenoxy}acetic acid]	marked inhibition
Cc1cc(SCc2sc(-c3ccc(C(F)(F)F)c(F)c3)nc2C)ccc1OCC(=O)O [Compound B, 2-{2-methyl-4-[({4-methyl-2-[3-fluoro-4-(trifluoromethyl)phenyl]-1,3-thiazol-5-yl}methyl)sulfanyl]phenoxy}acetic acid]	marked inhibition
